Test results taken from patent US11446287B2, “Compounds and methods for EP300 or CBP modulation and indications therefor” (Opna Immuno-Oncology SA, priority 2019, dated 2022).

molecular target: T1, Recombinant human CBP containing the bromodomain (CBP-BD (1043-1159)) (Homo sapiens, UniProt Q92793); test: CBP Alphascreen binding assay; conditions: read-out: CREBBP (CBP) IC50
T1 construct: Recombinant human CBP bromodomain (CBP-BD (1043-1159)); made in house; host or cells: E. coli BL21-CodonPlus (DE3), modified pET vector
Outline: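 Buffer: 50 mM HEPES pH 7.5, 50 mM NaCl, 0.01% BSA, 0.01% Triton X-100, 2 mM DTT. The signal was normalised to plate controls and fitted with a four-parameter curve to give IC50.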

T1 sequence (Q92793 1081-1197): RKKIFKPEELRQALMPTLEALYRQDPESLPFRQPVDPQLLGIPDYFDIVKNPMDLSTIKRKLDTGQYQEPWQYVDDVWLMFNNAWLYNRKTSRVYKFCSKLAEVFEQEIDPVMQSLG

Compound | IC50 [µM]
CCOc1ccc(C(=O)O)cc1-n1cc(-c2ccccc2)c2ncc(-c3c(C)noc3C)cc21 [P-0225, 3-(6-(3,5-dimethylisoxazol-4-yl)-3-phenyl-1H-pyrrolo[3,2-b]pyridin-1-yl)-4-ethoxybenzoic acid] | 0.0001 to 1
Cc1ccccc1-n1cc(-c2ccc(C(=O)O)cc2OC(F)(F)F)c2cc(-c3c(C)noc3C)cnc21 [P-0231, 4-(5-(3,5-dimethylisoxazol-4-yl)-1-(o-tolyl)-1H-pyrrolo[2,3-b]pyridin-3-yl)-3-(trifluoromethoxy)benzoic acid] | 0.0001 to 1
CCOc1cc(C(=O)O)cc(OCC)c1-n1cc(-c2cnn(C)c2)c2ncc(-c3c(C)noc3C)cc21 [P-0195, 4-(6-(3,5-dimethylisoxazol-4-yl)-3-(1-methyl-1H-pyrazol-4-yl)-1H-pyrrolo[3,2-b]pyridin-1-yl)-3,5-diethoxybenzoic acid] | 0.0001 to 1
Cc1noc(C)c1-c1cnc2c(c1)c(-c1ccc(C(=O)O)cc1C1CC1)cn2[C@@H](C)c1ccccn1 [P-0181, (S)-3-cyclopropyl-4-(5-(3,5-dimethylisoxazol-4-yl)-1-(1-(pyridin-2-yl)ethyl)-1H-pyrrolo[2,3-b]pyridin-3-yl)benzoic acid] | 0.0001 to 1
Cc1noc(C)c1-c1cnc2c(c1)c(-c1ccc(C(=O)O)cc1OC(F)(F)F)cn2C(CC#N)C1CC1 (centres unmarked) [P-0199, 4-(1-(2-cyano-1-cyclopropylethyl)-5-(3,5-dimethylisoxazol-4-yl)-1H-pyrrolo[2,3-b]pyridin-3-yl)-3-(trifluoromethoxy)benzoic acid] | 0.0001 to 1
CCOc1cc(C(=O)O)cc(OCC)c1-n1cc(-c2ccc(F)cc2)c2ncc(-c3c(C)noc3C)cc21 [P-0184, 4-(6-(3,5-dimethylisoxazol-4-yl)-3-(4-fluorophenyl)-1H-pyrrolo[3,2-b]pyridin-1-yl)-3,5-diethoxybenzoic acid] | 0.0001 to 1
COC(=O)c1cc(OC)c(-n2cc(-c3ccccc3)c3ncc(-c4c(C)noc4C)cc32)c(OC)c1 [P-0219, methyl 4-(6-(3,5-dimethylisoxazol-4-yl)-3-phenyl-1H-pyrrolo[3,2-b]pyridin-1-yl)-3,5-dimethoxybenzoate] | 0.0001 to 1
Cc1ccncc1-n1cc(-c2ccc(C(=O)O)cc2OC(F)(F)F)c2cc(-c3c(C)noc3C)cnc21 [P-0189, 4-(5-(3,5-dimethylisoxazol-4-yl)-1-(4-methylpyridin-3-yl)-1H-pyrrolo[2,3-b]pyridin-3-yl)-3-(trifluoromethoxy)benzoic acid] | 0.0001 to 1
Cc1noc(C)c1-c1cnc2c(-c3ccc(C(=O)O)cc3C#CC3CC3)cn([C@@H](C)c3ccccn3)c2c1 [P-0171, (S)-3-(cyclopropylethynyl)-4-(6-(3,5-dimethylisoxazol-4-yl)-1-(1-(pyridin-2-yl)ethyl)-1H-pyrrolo[3,2-b]pyridin-3-yl)benzoic acid] | 0.0001 to 1
COc1ccncc1-n1cc(-c2ccc(C(=O)O)cc2OC(F)(F)F)c2cc(-c3c(C)noc3C)cnc21 [P-0176, 4-(5-(3,5-dimethylisoxazol-4-yl)-1-(4-methoxypyridin-3-yl)-1H-pyrrolo[2,3-b]pyridin-3-yl)-3-(trifluoromethoxy)benzoic acid] | 0.0001 to 1
CCOc1cc(C(=O)O)cc(OCC)c1-n1cc(CC2CCC2)c2ncc(-c3c(C)nnn3C)cc21 [P-0190, 4-(3-(cyclobutylmethyl)-6-(1,4-dimethyl-1H-1,2,3-triazol-5-yl)-1H-pyrrolo[3,2-b]pyridin-1-yl)-3,5-diethoxybenzoic acid] | 0.0001 to 1
Cc1noc(C)c1-c1cnc2c(-c3ccc(C(=O)O)cc3F)c(C(F)(F)F)n([C@@H](C)c3ccccn3)c2c1 [P-0234, (S)-4-(6-(3,5-dimethylisoxazol-4-yl)-1-(1-(pyridin-2-yl)ethyl)-2-(trifluoromethyl)-1H-pyrrolo[3,2-b]pyridin-3-yl)-3-fluorobenzoic acid] | 0.0001 to 1
Cc1noc(C)c1-c1cnc2c(c1)c(-c1c(F)cc(C(=O)O)cc1OC(F)(F)F)cn2C(C1CC1)C1CC1 [P-0230, 4-(1-(dicyclopropylmethyl)-5-(3,5-dimethylisoxazol-4-yl)-1H-pyrrolo[2,3-b]pyridin-3-yl)-3-fluoro-5-(trifluoromethoxy)benzoic acid] | 0.0001 to 1
Cc1noc(C)c1-c1cnc2c(-c3cc(F)cc(C(=O)O)c3)c(C(F)(F)F)n([C@@H](C)c3ccccn3)c2c1 [P-0240, (S)-3-(6-(3,5-dimethylisoxazol-4-yl)-1-(1-(pyridin-2-yl)ethyl)-2-(trifluoromethyl)-1H-pyrrolo[3,2-b]pyridin-3-yl)-5-fluorobenzoic acid] | 0.0001 to 1
CCOc1cc(C(=O)O)cc(OCC)c1-n1cc(Cc2ccccn2)c2ncc(-c3c(C)noc3C)cc21 [P-0187, 4-(6-(3,5-dimethylisoxazol-4-yl)-3-(pyridin-2-ylmethyl)-1H-pyrrolo[3,2-b]pyridin-1-yl)-3,5-diethoxybenzoic acid] | 0.0001 to 1
Cc1noc(C)c1-c1cnc2c(c1)c(-c1ccc(C(=O)O)cc1OC(C)C)cn2C(C1CC1)C1CC1 [P-0213, 4-(1-(dicyclopropylmethyl)-5-(3,5-dimethylisoxazol-4-yl)-1H-pyrrolo[2,3-b]pyridin-3-yl)-3-isopropoxybenzoic acid] | 0.0001 to 1
CCOc1cc(C(=O)O)cc(OCC)c1-n1cc(CC2CCC2)c2ncc(-c3c(COC)noc3C)cc21 [P-0210, 4-(3-(cyclobutylmethyl)-6-(3-(methoxymethyl)-5-methylisoxazol-4-yl)-1H-pyrrolo[3,2-b]pyridin-1-yl)-3,5-diethoxybenzoic acid] | 0.0001 to 1
CCOc1cc(C(=O)O)cc(OCC)c1-n1cc(-c2cccc(Cl)c2)c2ncc(-c3c(C)noc3C)cc21 [P-0185, 4-(3-(3-chlorophenyl)-6-(3,5-dimethylisoxazol-4-yl)-1H-pyrrolo[3,2-b]pyridin-1-yl)-3,5-diethoxybenzoic acid] | 0.0001 to 1
Cc1noc(C)c1-c1cnc2c(c1)c(-c1ccc(C(=O)O)cc1OC(F)(F)F)c(C)n2-c1ccccn1 [P-0228, 4-(5-(3,5-dimethylisoxazol-4-yl)-2-methyl-1-(pyridin-2-yl)-1H-pyrrolo[2,3-b]pyridin-3-yl)-3-(trifluoromethoxy)benzoic acid] | 0.0001 to 1
CCOc1cc(C(=O)O)cc(OC(C)C)c1-c1cn([C@@H](C)c2ccccn2)c2ncc(-c3c(C)noc3C)cc12 [P-0174, (S)-4-(5-(3,5-dimethylisoxazol-4-yl)-1-(1-(pyridin-2-yl)ethyl)-1H-pyrrolo[2,3-b]pyridin-3-yl)-3-ethoxy-5-isopropoxybenzoic acid] | 0.0001 to 1
Cc1noc(C)c1-c1cnc2c(c1)c(-c1ccc(C(=O)O)cc1OC(F)(F)F)cn2-c1ncccc1C#CC1CC1 [P-0216, 4-(1-(3-(cyclopropylethynyl)pyridin-2-yl)-5-(3,5-dimethylisoxazol-4-yl)-1H-pyrrolo[2,3-b]pyridin-3-yl)-3-(trifluoromethoxy)benzoic acid] | 0.0001 to 1
CCOc1cc(C(=O)O)cc(OCC)c1-n1cc(-c2ccc(F)c(Cl)c2)c2ncc(-c3c(C)noc3C)cc21 [P-0209, 4-(3-(3-chloro-4-fluorophenyl)-6-(3,5-dimethylisoxazol-4-yl)-1H-pyrrolo[3,2-b]pyridin-1-yl)-3,5-diethoxybenzoic acid] | 0.0001 to 1
Cc1noc(C)c1-c1cnc2c(c1)c(-c1ccc(C(=O)O)cc1OC(F)(F)F)cn2-c1cnccc1Cl [P-0177, 4-(1-(4-chloropyridin-3-yl)-5-(3,5-dimethylisoxazol-4-yl)-1H-pyrrolo[2,3-b]pyridin-3-yl)-3-(trifluoromethoxy)benzoic acid] | 0.0001 to 1
Cc1noc(C)c1-c1cnc2c(c1)c(-c1ccc(C(=O)O)cc1OC(F)(F)F)cn2-c1ncccc1F [P-0182, 4-(5-(3,5-dimethylisoxazol-4-yl)-1-(3-fluoropyridin-2-yl)-1H-pyrrolo[2,3-b]pyridin-3-yl)-3-(trifluoromethoxy)benzoic acid] | 0.0001 to 1
COc1cccc(OC)c1-n1cc(-c2ccccc2)c2ncc(-c3c(C)noc3C)cc21 [P-0221, 4-(1-(2,6-dimethoxyphenyl)-3-phenyl-1H-pyrrolo[3,2-b]pyridin-6-yl)-3,5-dimethylisoxazole] | 1 to 8
Cc1noc(C)c1-c1cnc2c(c1)c(-c1ccc(C(=O)O)cc1)cn2C(C)c1ncccn1 (centres unmarked) [P-0013, 4-(5-(3,5-dimethylisoxazol-4-yl)-1-(1-(pyrimidin-2-yl)ethyl)-1H-pyrrolo[2,3-b]pyridin-3-yl)benzoic acid] | 0.0001 to 1
